From article PMC5259778, “Candidate pheromone receptors of codling moth Cydia pomonella respond to pheromones and kairomones” (Scientific Reports, 2017)

Experiments:
CpomOR1 = test: Single sensillum recordings, CpomOR1 expressed in Drosophila at1 OSNs; format: cell-based, Cydia pomonella
From the text: (§1) To perform heterologous expression in D. melanogaster OSNs, CpomORs were amplified using primers in Table 2 and purified PCR products were cloned into the PCR8/GW/TOPO plasmid (Invitrogen) following the recommended protocol. Cassettes with inserts were then transferred from their PCR8/GW/TOPO plasmids to the destination vector (pUASg-HA.attB, constructed by E. Furger and J. Bischof, kindly provided by the Basler group, Zürich), using the Gateway LR Clonase II kit (Invitrogen). The integrity and orientation of inserts was confirmed by sequencing (Sanger sequencer, 3730xl). Transformant UAS-CpomOR3 and UAS-CpomOR1 lines were generated by Best Gene (Chino Hills, CA, USA), using the PhiC31 integrase system, while the transformant UAS-CpomOR6a line was generated in our labs. Briefly, recombinant pUASg-HA.attB-CpomOR plasmids were injected into embryos of a D. melanogaster line containing an attP insertion site within the third chromosome (genotype y1 M{vas-int.Dm}ZH-2A w*; M{3xP3-RFP.attP}ZH-86Fb), leading to non-random integration. To drive expression of CpomORs in at1 OSNs in place of the endogenous receptor Or67d, transformant UAS-CpomOR lines were crossed to the knock-in Or67d^GAL4 line (kindly provided by Barry Dickson) to generate double homozygous lines w^+;UAS-CpomOR; Or67d^GAL4. Additionally, to drive expression of CpomOR3 in ab3A OSNs, the UAS-CpomOR3 line was crossed to the Δhalo;Or22a-Gal4 mutant line[20][57]. To verify insertion of UAS-CpomORs constructs into the genome, gDNA was extracted and used as template in PCR with primers for the full ORF of CpomORs (Table 2).
(§2) CpomOR1 and CpomOR6a expressed in at1 OSNs, and CpomOR3 expressed in ab3A OSNs, were tested through single sensillum recordings (SSR). Three to 8-day-old flies were immobilized in 100 μL pipette tips with only the top half of the head protruding. The left antenna of each insect was gently pushed with a glass capillary against a double-sided adhesive tape placed on a piece of glass. This piece of glass and the pipette tip were fixed with dental wax on a microscope slide. Electrolytically sharpened tungsten electrodes (Harvard Apparatus Ltd, Edenbridge, United Kingdom) were used to penetrate the insect´s body. The reference electrode was manually inserted in the right eye of the fly, while the recording electrode was manoeuvred with a DC-3K micromanipulator equipped with a PM-10 piezo translator (Märzhäuser Wetzler GmbH, Wetzler, Germany) and inserted at the base of the determined sensilla. Signals coming from the olfactory sensory neurons were amplified 10 times with a probe (INR-02, Syntech, Hilversum, the Netherlands), digitally converted through an IDAC-4-USB (Syntech) interface, and visualized and analysed with the software Autospike v. 3.4 (Syntech). A constant flow of 0.65 m/s of humidified air (charcoal-filtered) was delivered through a glass tube to the antenna. The panel of odorants was given to the insect by inserting pipettes containing a piece of filter paper with the correspondent stimulus in a lateral hole of the glass tube and puffing a flow of 2.5 mL of air during 0.5 s through the pipette. For CpomOR1 and CpomOR6a the panel of odorants was prepared by applying 10 μL of a solution of 1.0 μg/μL of the compounds in Supplementary Dataset S2 and Supplementary Dataset S3, for a total amount of 10 μg per stimulus. In the case of CpomOR3, a similar dilution process was used for the dose response experiments of ethyl-(E,Z)-2,4-decadienoate and methyl-(E,Z)-2,4-decadienoate, as well for dose response of experiments of codlemone acetate in CpomOR6a. Compounds were diluted from concentrations ranging from 0.01 ng/μL to 10 μg/μL in decadic steps, allowing reaching concentrations from 100 pg to 100 μg per stimulus when 10 μL of the dilution was applied in the piece of filter paper. […]

CpomOR6a = test: Single sensillum recordings, CpomOR6a expressed in Drosophila at1 OSNs; format: cell-based, Cydia pomonella; details: for Spike/s: 10 μg per stimulus
From the text: as §1, §2

[1] = replicate 1, 10 μg per stimulus
[2] = replicate 2, 10 μg per stimulus
[3] = replicate 3, 10 μg per stimulus
[4] = replicate 4, 10 μg per stimulus
[5] = replicate 5, 10 μg per stimulus

Work on `C/C=C/C=C/CCCCCCCOC(C)=O` [codlemone acetate, (E,E)-8,10-dodecadien-1-yl acetate] yielded a Spikes/s (CpomOR1; [1]) of 2 Spikes/s, a Spikes/s (CpomOR1; [2]) of 4 Spikes/s and a Spikes/s (CpomOR1; [3]) of 4 Spikes/s. For the same compound, the Spikes/s (CpomOR1; [4]) was 2 Spikes/s, the Spikes/s (CpomOR1; [5]) was 4 Spikes/s and the “response compared with the solvent” value (CpomOR6a; 10 μg doses, Mann-Whitney U Test, p < 0.05) was “strongest response significantly different from the solvent”. For the same compound, the threshold for detection (CpomOR6a; dose response, dose per stimulus) was 1.0 microgram, the Spike/s (CpomOR6a; replicate 1) was 46 Spike/s and the Spike/s (CpomOR6a; replicate 2) was 50 Spike/s. The Spike/s (CpomOR6a; replicate 3) was 44 Spike/s, the Spike/s (CpomOR6a; replicate 4) was 54 Spike/s and the Spike/s (CpomOR6a; replicate 5) was 80 Spike/s. It also gave a Spike/s (CpomOR6a; replicate 6) of 46 Spike/s, a Spike/s (CpomOR6a; replicate 7) of 82 Spike/s and a Spike/s (CpomOR6a; replicate 8) of 62 Spike/s. For the same compound, the Spike/s (CpomOR6a; replicate 9) was 58 Spike/s.

`C/C=C/C=C/CCCCCCCO` [codlemone, (E,E)-8,10-dodecadien-1-ol] was tested, and the Spikes/s (CpomOR1; replicate 1, 100 ng) was -4 Spikes/s, the Spikes/s (CpomOR1; [1]) was 6 Spikes/s and the Spikes/s (CpomOR1; replicate 2, 100 ng) was 2 Spikes/s. It also gave a Spikes/s (CpomOR1; [2]) of 2 Spikes/s, a Spikes/s (CpomOR1; replicate 3, 100 ng) of 2 Spikes/s and a Spikes/s (CpomOR1; [3]) of 0 Spikes/s. It also gave a Spikes/s (CpomOR1; replicate 4, 100 ng) of -8 Spikes/s, a Spikes/s (CpomOR1; [4]) of -12 Spikes/s and a Spikes/s (CpomOR1; replicate 5, 100 ng) of -4 Spikes/s. It also gave a Spikes/s (CpomOR1; [5]) of 0 Spikes/s, a Spike/s (CpomOR6a; replicate 1) of 0 Spike/s and a Spike/s (CpomOR6a; replicate 2) of 0 Spike/s. For the same compound, the Spike/s (CpomOR6a; replicate 3) was -4 Spike/s, the Spike/s (CpomOR6a; replicate 4) was 6 Spike/s and the Spike/s (CpomOR6a; replicate 5) was 0 Spike/s. The Spike/s (CpomOR6a; replicate 6) was 2 Spike/s, the Spike/s (CpomOR6a; replicate 7) was 14 Spike/s and the Spike/s (CpomOR6a; replicate 8) was 0 Spike/s. It also gave a Spike/s (CpomOR6a; replicate 9) of 2 Spike/s.
